Results published in patent publication US20040048837A1, “Method for treatment of renal disease” (priority 2002, published 2004).

What was measured:
[1] = test system: patients undergoing chronic hemodialysis; test: Historical cohort study of mortality and survival in chronic hemodialysis patients on intravenous paricalcitol or calcitriol; assay type: in vivo, human; conditions: for Mortality rate (deaths/person-years): 36-month follow-up after initiation of injectable vitamin D; for Number of deaths: 36-month follow-up, paricalcitol 18,430 person-years, calcitriol 22,057 person-years; for Crude survival at one year / Crude survival at three years / Crude survival at two years: Kaplan-Meier; for Mortality risk according to quintiles of base line PTH / Mortality risk according to quintiles of base line serum calcium: model adjusted for all covariates; for HR (mortality): reference calcitriol
Procedure: An historical cohort study was conducted of patients undergoing chronic hemodialysis in Fresenius Medical Care (FMC) dialysis facilities in the United States. Patients who initiated treatment with either paricalcitol or calcitriol beginning Jan. 1, 1999 or after, and who remained exclusively on that intravenous vitamin D formulation until the conclusion of the follow-up period on Dec. 31, 2001, were included in this study. Patients were excluded if they received any form of intravenous vitamin D prior to Jan. 1, 1999 or if they switched from one injectable vitamin D formulation to another during the study period. Patients treated exclusively with other intravenous vitamin D formulations were not studied because of small sample sizes in those groups.
The FMC data system is an Oracle database populated by the individual clinical data systems employed in each individual FMC dialysis facility. The database contains demographic, laboratory, hospitalization, and mortality information as well as detailed records of the treatments administered during each hemodialysis run since January 1995. All data were collected prospectively as part of routine patient care in over 1000 dialysis facilities throughout the United States. For this study, no additional data were retrospectively abstracted from medical records.
Upon a patient's admission to an FMC facility, demographic information including age, gender, race, date of first dialysis, cause of end stage renal disease, and diabetes status were entered into the system. Subsequently, hemodialysis prescription, laboratory tests, and injectable medications were recorded daily. Centralized labs utilized by all FMC facilities performed laboratory tests using standardized assays. Laboratory test results were automatically downloaded from the centralized laboratory to the FMC data system, minimizing the possibility of data entry errors.
Records of all medicines administered during hemodialysis included date of administration, medication name, dose, and route of administration. This information was collected and uploaded into a central database on a daily basis, and underwent routine quality assessment and control measures because of their link with billing systems. This permitted restriction of the analysis to those who initiated and remained on a single vitamin D formulation during the study period. Whenever a patient missed a hemodialysis treatment, a temporary absence or permanent discharge must be recorded in the system by the facility staff in order to complete the daily reconciliation of prescribed verses administered treatments. Therefore, all patient deaths, including date and cause of death (ICD-9 coded), were recorded in the database by the individual facilities as one type of permanent discharge. In addition, all hospitalizations are recorded as temporary absences, even if no dialysis treatment was missed. Data entered by the individual facilities underwent continuous quality improvement assessment to ensure their accuracy and completeness.
The base line for each individual patient was defined as within a three-month period before starting on paricalcitol or calcitriol. Base line laboratory values were obtained by averaging all values in the three months prior to initiating vitamin D therapy. Quintiles of base line serum calcium and phosphate levels were determined by aggregating values of all patients in the three year time period. Because of known lot-to-lot drifts in parathyroid hormone (PTH) assays, serum levels of PTH were categorized by yearly quintiles, and comparative quintiles across years were combined for the analysis.
Patient “vintage” was determined as the number of days from the initiation of chronic hemodialysis to the first day paricalcitol or calcitriol was administered. This covariate was examined both as a continuous and a categorical variable. […]

cells = conditions: in vitro; compared with paricalcitol; independent of serum calcium, phosphate, PTH; cited from earlier work
patients = conditions: compared with injectable calcitriol (Calcijex); cited from earlier work
[2] = test system: patients undergoing chronic renal dialysis; conditions: use of paricalcitol; cited from earlier work
uremic rats = conditions: cited from earlier work

C=C1/C(=C\C=C2/CCC[C@]3(C)[C@@H]([C@H](C)CCCC(C)(C)O)CC[C@@H]23)C[C@@H](O)C[C@@H]1O [calcitriol, 1,25 dihydroxycholecalciferol]
Mortality rate (deaths/person-years) [1]: 30.85% | Number of deaths [1]: 6805 deaths | Crude survival at one year [1]: 73.7% | Crude survival at three years [1]: 44.1% | Crude survival at two years [1]: 56.0% | Mortality risk according to quintiles of base line PTH [1]: increased with each successive quintile | Mortality risk according to quintiles of base line serum calcium [1]: increased with each successive quintile | Cell sensitization to injury (cells): sensitizes cells to ATP-depletion and iron-mediated injury

C[C@H](/C=C/[C@H](C)C(C)(C)O)[C@H]1CC[C@H]2/C(=C/C=C3C[C@@H](O)C[C@H](O)C3)CCC[C@]12C [paricalcitol, 19-Nor=−1, 25-(OH)2D2]
Mortality rate (deaths/person-years) [1]: 18.54% | Number of deaths [1]: 3417 deaths | HR (mortality), restricted population, adjusted ([1]; Caucasian diabetic patients, ages 60-70 years, vintage <100 days, arteriovenous prosthetic graft, 95% CI 0.21-0.82): 0.42 | HR (mortality), restricted population, unadjusted ([1]; Caucasian diabetic patients, ages 60-70 years, vintage <100 days, arteriovenous prosthetic graft, 95% CI 0.33-0.85): 0.53 | HR (mortality) ([1]; Cox model Case Mix, Study Entry Period, SMR, Dialysis Access, Base-Line Laboratory Values, N 25,471): 0.73 | HR (mortality) ([1]; Cox model Case Mix, Study Entry Period, SMR, Dialysis Access, N 50,572): 0.70 | HR (mortality) ([1]; Cox model Case Mix, Study Entry Period, SMR, N 50,572): 0.69 | HR (mortality) ([1]; Cox model Case-Mix and Study Entry Period, N 50,572): 0.70 | HR (mortality) ([1]; Cox model Case-Mix, N 50,572): 0.61 | HR (mortality) ([1]; Cox model Unadjusted, N 50,916): 0.58 | Crude survival at one year [1]: 82.6% | Crude survival at three years [1]: 59.3% | Crude survival at two years [1]: 68.6% | Apparent risk (survival) benefit associated with paricalcitol treatment ([1]; after progressive adjustments, vs calcitriol): ~27% | Mortality risk within each quintile of serum phosphorus ([1]; compared with the calcitriol group, adjusted model): comparatively lower | Hazard ratio in the final model (Table 3) ([1]; final model n=25,471, Ref = calcitriol): 0.733 | Risk reduction for each cause of mortality by ICD-9 codes ([1]; infection, neoplasm, cardiovascular, cerebrovascular, other, vs calcitriol, p<0.01): greater than 50% | Mortality risk according to quintiles of base line PTH [1]: significantly lower risk of mortality at all levels of PTH | Mortality risk according to quintiles of base line serum calcium [1]: did not appear to have an increased risk of mortality | Mortality Rate Ratio ([1]; paricalcitol vs calcitriol, 95% CI 0.58-0.63, p<0.01): 0.60 | Survival advantage over calcitriol in stratum ([1]; patients less than 40 years of age at start, event rate 9%): did not demonstrate a significant survival advantage | Incidence of elevated Ca and/or Ca X P levels (patients): statistically significantly greater | Adverse effects reported [2]: nausea, vomiting, metallic tastes, chills, fever, sepsis, palpitations, dry mouth, gastrointestinal bleeding, edema, light-headedness and pneumonia | Hypercalcemia or hyperphosphatemia (uremic rats): without producing significant hypercalcemia or hyperphosphatemia | PTH secretion (uremic rats): suppressed PTH secretion
